Test results published in US12247010B2, “Tubulin inhibitors” (LIN BIOSCIENCE PTY LTD., priority 2017, dated 2025).

Legend:
U87MG cells = experiment: Cytotoxicity assay (cell viability, CellTiter 96 Aqueous MTS); assay type: cell-based; settings: Homo sapiens, U-87 MG, 72 h, 72 hours incubation, starting concentration 50 uM, 9 point half log dilution, average where tested repeatedly
Summary of the method: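 U87MG cells plated at 7×10^3 cells/well overnight, then treated 72 h with 9-point half-log dilutions from a 50 uM starting concentration. Viability measured with CellTiter 96 Aqueous MTS; IC50 calculated from viability.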

tubulin = experiment: Tubulin polymerization assay (Cytoskeleton, Inc. inhibitor screening protocol); assay type: biochemical; settings: 3 μM, 37C, compared to DMSO control
Method: Example 4. Tubulin Polymerization Assay
Compounds described herein were tested in a tubulin polymerization inhibition assay using the general manufacturer's protocol for inhibitor screening (Cytoskeleton, Inc. BK01 IP). DMSO was used as a negative control, and vinblastine was tested as a positive control. All compounds were tested at a concentration of 3 μM, and incubation was carried out at 37C for 60 minutes. Results were calculated as a percent inhibition (compared to DMSO control) after 60 min of incubation, the results of which are shown in Table 3.

SMILES	IC50 (U87MG cells) [nM]	% Tubulin Polymerization at 60 min (tubulin)
Cc1ncccc1C(=O)NCCCc1ccc(-c2ccccc2F)cc1 [Compound 81, N-(3-(2′-fluoro-[1,1′-biphenyl]-4-yl)propyl)-2-methylnicotinamide]	< 500	A (A is < 20%)
Nc1ncc(C(=O)NCCCc2ccc(-c3ccccc3F)cc2)cn1 [Compound 96]	< 500	A (A is < 20%)
COc1ccc(CC(=O)NCCCc2ccc(-c3ccccc3F)cc2)cc1 [Compound 101, N-(3-(2′-fluoro-[1,1′-biphenyl]-4-yl)propyl)-2-(4-methoxyphenyl)acetamide]	< 500	C (C is 41-60%)
O=C(NCCCc1ccc(-c2ccccc2F)cc1)c1ccc2[nH]cnc2c1 [Compound 136, N-(3-(2′-fluoro-[1,1′-biphenyl]-4-yl)propyl)-1H-benzo[d]imidazole-5-carboxamide]	< 500	A (A is < 20%)
Cc1ncc(C(=O)NCCCc2ccc(-c3ccccc3F)cc2)s1 [Compound 138, N-(3-(2′-fluoro-[1,1′-biphenyl]-4-yl)propyl)-2-methylthiazole-5-carboxamide]	< 500	A (A is < 20%)
O=C(CCCc1ccc(-c2ccc3[nH]c(=O)ccc3c2)cc1)Nc1cccnc1 [Compound 207, 4-(4-(2-oxo-1,2-dihydroquinolin-6-yl)phenyl)-N-(pyridin-3-yl)butanamide]	< 500	D (D is 61-80%)
O=C(CCCc1ccc(-c2ccc3cnccc3c2)cc1)Nc1cccnc1 [Compound 214, 4-(4-(isoquinolin-6-yl)phenyl)-N-(pyridin-3-yl)butanamide]	< 500	F (F is 81-100%)
Cc1ccc(C(=O)NCCCc2ccc(-c3ccc4c(cnn4C)c3)cc2)cn1 [Compound 226, 6-methyl-N-(3-(4-(1-methyl-1H-indazol-5-yl)phenyl)propyl)nicotinamide]	< 500	C (C is 41-60%)
Cc1cc(C(=O)NCCCc2ccc(-c3ccc4[nH]ncc4c3C)cc2)no1 [Compound 230, 5-methyl-N-(3-(4-(4-methyl-1H-indazol-5-yl)phenyl)propyl)isoxazole-3-carboxamide]	< 500	C (C is 41-60%)
Cn1ncc2cc(-c3ccc(CCCNC(=O)c4cnc(N)nc4)cc3)ccc21 [Compound 232, 2-amino-N-(3-(4-(1-methyl-1H-indazol-5-yl)phenyl)propyl)pyrimidine-5-carboxamide]	< 500	C (C is 41-60%)
Cc1cc(C(=O)NCCCc2ccc(-c3cnc4[nH]ccc4c3)cc2)n(C)n1 [Compound 233, N-(3-(4-(1H-pyrrolo[2,3-b]pyridin-5-yl)phenyl)propyl)-1,3-dimethyl-1H-pyrazole-5-carboxamide]	< 500	A (A is < 20%)
Cc1cc(C(=O)NCCCc2ccc(-c3ccc4ncccc4c3)cc2)no1 [Compound 239, 5-methyl-N-(3-(4-(quinolin-6-yl)phenyl)propyl)isoxazole-3-carboxamide]	< 500	C (C is 41-60%)
Cc1ccc(C(=O)NCCCc2ccc(-c3ccc4[nH]ncc4c3C)cc2)cn1 [Compound 243, 6-methyl-N-(3-(4-(4-methyl-1H-indazol-5-yl)phenyl)propyl)nicotinamide]	< 500	A (A is < 20%)
O=C(Nc1ccc2[nH]ccc2c1)N1CCN(c2ccc(-c3ccccc3F)cc2)CC1 [Compound 280, 4-(2′-fluoro-[1,1′-biphenyl]-4-yl)-N-(1H-indol-5-yl)piperazine-1-carboxamide]	< 500	F (F is 81-100%)
CC[C@]1(O)C[C@@H]2CN(CCc3c([nH]c4ccccc34)[C@@](C(=O)OC)(c3cc4c(cc3OC)N(C)[C@H]3[C@@](O)(C(=O)OC)[C@H](OC(C)=O)[C@]5(CC)C=CCN6CC[C@]43[C@@H]65)C2)C1 [Vinblastine, vinblastine, reference compound]		A (A is < 20%)
